Test results taken from ChEMBL document CHEMBL3638956, “Tetrahydro-pyrazolo[1,5-a]pyrido-pyrimidines as antagonists of serotonin 5-HT6 receptors, methods for the production and use thereof” (2013).

Biological target: 5-hydroxytryptamine receptor 6 (Homo sapiens, UniProt P50406)
Assay: Competitive Binding Assay: Activity test of serotonin 5-HT6 receptor antagonists of the general formulas 1, 2 in the setting of competitive binding to serotonin 5-HT6 receptors.

Sequence of 5-hydroxytryptamine receptor 6 (P50406 whole entry): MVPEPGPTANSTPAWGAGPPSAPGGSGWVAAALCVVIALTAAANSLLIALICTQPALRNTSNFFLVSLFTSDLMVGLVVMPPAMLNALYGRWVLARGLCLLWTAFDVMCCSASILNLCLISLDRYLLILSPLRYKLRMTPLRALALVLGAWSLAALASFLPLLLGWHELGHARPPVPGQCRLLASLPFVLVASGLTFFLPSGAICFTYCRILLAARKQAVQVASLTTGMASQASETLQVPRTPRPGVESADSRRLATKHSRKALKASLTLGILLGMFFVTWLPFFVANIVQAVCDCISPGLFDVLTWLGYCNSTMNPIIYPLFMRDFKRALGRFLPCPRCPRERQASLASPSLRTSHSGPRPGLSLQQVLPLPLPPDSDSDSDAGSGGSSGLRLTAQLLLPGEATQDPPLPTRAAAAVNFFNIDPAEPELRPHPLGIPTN

Question: Which IC50 does the source give for Cc1nn2c3c(cnc2c1S(=O)(=O)c1ccccc1)CN(C)CC3 here?
Answer: Its IC50 is 0.013 µM.

Question: How did the IC50 turn out when CSc1nn2c3c(cnc2c1S(=O)(=O)c1ccccc1)CN(C)CC3 was run?
Answer: Its IC50 is 0.0769 µM.

Question: What about the Ki of the same compound?
Answer: Its Ki is 0.0357 µM.

Question: How did the Ki turn out when Cc1nn2c3c(cnc2c1S(=O)(=O)c1ccccc1)CNCC3 was run?
Answer: Its Ki is 0.00214 µM.

Question: Which results are given for CSc1nn2c3c(c(C)nc2c1S(=O)(=O)c1ccccc1)CNCC3?
Answer: IC50: 0.0166 µM; Ki: 0.0077 µM
